1 compound from patent US20240091227A1, “Use Of 2-Phenyl-6-(1H-Imidazol-1-YL) Quinazoline For Treating Neurodegenerative Diseases, Preferably Alzheimer's Disease” (ROTTAPHARM BIOTECH S.R.L., priority 2019, published 2024) can be followed below.

For the assay, the system named is PKCε. The assay is described as follows: PKCε translocation to the plasma membrane in cultured dorsal root ganglia neurons. In kind it is cell-based, rat. The note with it: idazoxan pre-applied 10 minutes at 10 and 100 μM, toward 1 μM CR4056. The protocol:
FIG. 1 reports the time-course (A) and washout (B) of CR4056 effect on PKCF translocation induced by bradykinin (BK 1 μM). In Panel A, open symbols represent the percentage of neurons positive for PKCF translocation following BK stimulation in absence of the drug. Filled symbols represent neurons pre-incubated with CR4056 ([…]) for different times before the stimulation for 30 seconds with BK+CR4056. The first filled symbol indicates the effect of CR4056 co-incubated for 30 seconds with BK, the second filled symbol indicates 10 seconds of pre-incubation of CR4056, and the last indicates 24 hours of pre-incubation of CR4056. […] In Panel B, BK-induced PKCF translocation was evaluated before (open symbol) and after pre-incubation of CR4056 ([…]) at different time intervals (from 10 minutes to 8 hours) (filled symbols). The first datapoint was obtained at the end of the 10 minute pre-incubation, when CR4056 was still present. The subsequent datapoints were obtained after extensive rinsing to ensure complete removal of the drug from extracellular solution (n=3).
Rat dorsal root ganglia (DRGs) were obtained from freshly isolated spines after carefully removing nerve trunks and connective tissue. Larger ganglia, chopped into 2-4 smaller pieces were then incubated for 1 hour at 37° C. in 0.125% collagenase (Worthington, Freehold, NJ) dissolved in Dulbecco's modified Eagle's medium (DMEM) containing 10% fetal bovine serum (FBS) plus 1% penicillin/streptomycin and 1% L-glutamine (Euroclone, Milan, Italy). After enzymatic digestion, ganglia were mechanically dissociated and neurons plated at a density such that neurons would cover about 30% of coverslip surface in a single layer, in petri dishes containing wells with a glass bottom coverslip (pre-coated with 10 μg/mL poly-L-lysine and 20 µg/ml laminin, Sigma-Aldrich, Milan, Italy). Cells were incubated for 2-3 days in DMEM as described above, plus 1.5 μg/ml cytosine 1-d-arabinofuranoside (ARA-C, Sigma-Aldrich) to slow down proliferation of non neuronal cells, and 100 ng/ml nerve growth factor (NGF, Sigma-Aldrich) to increase cell health and the and the expression of receptors which are linked to PKCF translocation upon stimulation. Activation of membrane receptors coupled to phospholipase C pathway leads to PKCF translocation from cytoplasm to the plasma membrane. In order to study PKCε behaviour a well established technique was employed (Vellani V, Neuroscience, 2006). […] CR4056 was pre-applied in the culture medium for 10 min or co-applied with the stimulus. After fixation, cells were permeabilized with 0.2% Triton X-100 (Sigma-Aldrich, Milan, Italy) and exposed overnight to a rabbit polyclonal antibody highly specific for PKCF. After extensive rinsing, PKCF was visualized with a secondary antibody (1:200 dilution Alexa Fluor 488 goat anti-rabbit, Thermo Fisher Scientific, Monza, Italy) applied for 2-4 hours at room temperature in the dark Cells showing PKCF translocation were detected with a confocal microscope (Leica SP2, Leica, Switzerland) by measuring fluorescence intensity along a line drawn through the cytoplasm and the membrane, thus avoiding the nucleus. Neurons in which fluorescence intensity at the plasma membrane throughout the cell was 1.5-fold or higher than the mean cytoplasmic intensity were considered positive.

Take `c1ccc2c(c1)OCC(C1=NCCN1)O2` (stereo not shown) [Idazoxan, idazoxan, reference compound]: the “Effect of idazoxan on the block of PKCF translocation by CR4056” value is on record as “completely ineffective”.
